# Measurements from US12673055B2, “Treatment of atopic dermatitis with tradipitant” (Vanda Pharmaceuticals Inc., priority 2020, dated 2026).
# Test system: atopic dermatitis (AD) patients with severe pruritus
# Test: EPIONE randomized, placebo-controlled phase III study
# Format: in vivo, human
# Parameters: key to WI-NRS Adjusting for IGA Severity / WI-NRS (change) / Diary WI-NRS: change from baseline in WI-NRS itch score
# Experimental: A randomized, placebo-controlled phase III study is conducted in atopic dermatitis (AD) patients with severe pruritus with a range of disease severity presentation from mild (23%) to moderate (64%) and severe (13%) as determined by the Investigator's Global Assessment scale (IGA). In the study, patients (n=341) are randomized 1:1 to receive either tradipitant or placebo for a treatment period of eight (8) weeks. Patients in the tradipitant arm of the study are dosed with 85 mg tradipitant twice daily (bid). Patients are assessed at baseline and post-randomization with a number of symptomatic and disease severity scales at regular intervals.
# A significant interaction is observed between baseline disease severity and treatment (p=0.0004), where disease severity is measured by Investigator's Global Assessment (IGA) on a scale of 1-4.
# Similar effects are seen throughout the treatment periods at all post-randomization visits comprising weeks 2, 4, 6 and 8 (Table 1).
# [1] = mild AD (n = 79), 85 mg bid, Week 8
smiles,measurement,setting,value
O=C(c1ccccc1Cl)c1cccnc1-c1nnn(Cc2cc(C(F)(F)F)cc(C(F)(F)F)c2)c1-c1ccncc1 [Tradipitant],WI-NRS (change),"IGA 1, 2 (mild AD, n = 79), Tradipitant n = 40, 85 mg bid, Week 2",−2.59
same,WI-NRS (change),"IGA 1, 2 (mild AD, n = 79), Tradipitant n = 40, 85 mg bid, Week 4",−3.39
same,WI-NRS (change),"IGA 1, 2 (mild AD, n = 79), Tradipitant n = 40, 85 mg bid, Week 6",−4.18
same,WI-NRS (change),"IGA 1, 2 (mild AD, n = 79), Tradipitant n = 40, 85 mg bid, Week 8",−4.74
same,Diary WI-NRS,"IGA 1, 2 (n = 79), 85 mg bid, Week 2",−1.54
same,Diary WI-NRS,"IGA 1, 2 (n = 79), 85 mg bid, Week 4",−2.78
same,Diary WI-NRS,"IGA 1, 2 (n = 79), 85 mg bid, Week 6",−3.48
same,Diary WI-NRS,"IGA 1, 2 (n = 79), 85 mg bid, Week 8",−4.23
same,Diary WI-NRS Diff (tradipitant vs placebo),"IGA 1, 2 (n = 79), Week 2",1.18
same,WI-NRS Diff (tradipitant vs placebo),"IGA 1, 2 (n = 79), Week 2",1.61
same,Diary WI-NRS Diff (tradipitant vs placebo),"IGA 1, 2 (n = 79), Week 4",1.71
same,WI-NRS Diff (tradipitant vs placebo),"IGA 1, 2 (n = 79), Week 4",1.92
same,Diary WI-NRS Diff (tradipitant vs placebo),"IGA 1, 2 (n = 79), Week 6",1.76
same,WI-NRS Diff (tradipitant vs placebo),"IGA 1, 2 (n = 79), Week 6",1.86
same,Diary WI-NRS Diff (tradipitant vs placebo),"IGA 1, 2 (n = 79), Week 8",2.09
same,WI-NRS Diff (tradipitant vs placebo),"IGA 1, 2 (n = 79), Week 8",1.60
same,WI-NRS Adjusting for IGA Severity,"ITT (n = 341), 85 mg bid, Week 2",−2.43
same,WI-NRS Adjusting for IGA Severity,"ITT (n = 341), 85 mg bid, Week 4",−3.34
same,WI-NRS Adjusting for IGA Severity,"ITT (n = 341), 85 mg bid, Week 6",−3.75
same,WI-NRS Adjusting for IGA Severity,"ITT (n = 341), 85 mg bid, Week 8",−4.36
same,WI-NRS (change),"ITT (n = 341), Tradipitant n = 171, 85 mg bid, Week 2",−1.68
same,WI-NRS (change),"ITT (n = 341), Tradipitant n = 171, 85 mg bid, Week 4",−2.58
same,WI-NRS (change),"ITT (n = 341), Tradipitant n = 171, 85 mg bid, Week 6",−3.00
same,WI-NRS (change),"ITT (n = 341), Tradipitant n = 171, 85 mg bid, Week 8",−3.61
same,"WI-NRS Adjusting for IGA Severity, Diff (tradipitant vs placebo)","ITT (n = 341), Week 2",1.14
same,WI-NRS Diff (tradipitant vs placebo),"ITT (n = 341), Week 2",0.23
same,"WI-NRS Adjusting for IGA Severity, Diff (tradipitant vs placebo)","ITT (n = 341), Week 4",1.29
same,WI-NRS Diff (tradipitant vs placebo),"ITT (n = 341), Week 4",0.39
same,"WI-NRS Adjusting for IGA Severity, Diff (tradipitant vs placebo)","ITT (n = 341), Week 6",1.01
same,WI-NRS Diff (tradipitant vs placebo),"ITT (n = 341), Week 6",0.11
same,"WI-NRS Adjusting for IGA Severity, Diff (tradipitant vs placebo)","ITT (n = 341), Week 8",1.08
same,WI-NRS Diff (tradipitant vs placebo),"ITT (n = 341), Week 8",0.18
same,magnitude of improvement in pruritus (WI-NRS) compared with placebo,"full population, week 8, difference not statistically significant",greater than that of placebo
same,"improvement in WI-NRS compared to placebo, accounting for baseline disease severity and treatment interaction","full trial population, week 8, p=0.0217",significantly larger improvement
same,safety profile,in vivo,relatively safe profile
same,WI-NRS over placebo in the mild AD group,"mild AD (IGA 1, 2), every visit",significantly improves WI-NRS over placebo at every visit
same,Responder Analysis: IGA 0 or 1,[1],60.0%
same,Responder Analysis: SCORAD 50% Improvement,[1],55.0%
same,"Responder Analysis: IGA 0 or 1, Diff (tradipitant vs placebo)","mild AD (n = 79), Week 8",21.5%
same,"Responder Analysis: SCORAD 50% Improvement, Diff (tradipitant vs placebo)","mild AD (n = 79), Week 8",24.2%
same,"Responder Analysis: WI-NRS ≥4 Improvement, Diff (tradipitant vs placebo)","mild AD (n = 79), Week 8",39.2%
same,time course of response: onset of antipruritic effect,"mild AD patients, daily diary",immediately after the first full day of tradipitant dosing
same,Responder Analysis: WI-NRS ≥4 Improvement,"mild AD, IGA 1, 2 (n = 79), 85 mg bid, Week 8",72.5%
